From US20070154996A1, “Method for transferring a glucosyl residue” (priority 2004, published 2007)

Assays:
[1] = target: T1, trehalose phosphorylase (Thermoanaerobacter brockii, UniProt Q8L164); assay: Transglucosylation to polyalcohols by trehalose phosphorylase (GC analysis); format: biochemical, Thermoanaerobium brockii; set-up: key to Transfer of a glucosyl residue (Transglucosylation): +++: the area of 60% or higher; ++: 30% or higher but less than 60%; +: 0% or higher but less than 30%; −: Transglucosylation was not detected; conditions: 1% (w/v) polyalcohol as acceptor, 1.4% (w/v) β-G1P, pH 6.0, 50° C., 24 hours; for Transfer of a glucosyl residue (Transglucosylation): one unit/ml enzyme, peak area of transferred product to total peak area
T1 construct: cells collected from the culture were disrupted by ultrasonication and then, the supernatant was collected; made in house; host or cells: Thermoanaerobium brockii ATCC 35047 (natural producer, not recombinant); purified by DEAE, butyl and gel filtration chromatography
T1 sequence (Q8L164 1-774): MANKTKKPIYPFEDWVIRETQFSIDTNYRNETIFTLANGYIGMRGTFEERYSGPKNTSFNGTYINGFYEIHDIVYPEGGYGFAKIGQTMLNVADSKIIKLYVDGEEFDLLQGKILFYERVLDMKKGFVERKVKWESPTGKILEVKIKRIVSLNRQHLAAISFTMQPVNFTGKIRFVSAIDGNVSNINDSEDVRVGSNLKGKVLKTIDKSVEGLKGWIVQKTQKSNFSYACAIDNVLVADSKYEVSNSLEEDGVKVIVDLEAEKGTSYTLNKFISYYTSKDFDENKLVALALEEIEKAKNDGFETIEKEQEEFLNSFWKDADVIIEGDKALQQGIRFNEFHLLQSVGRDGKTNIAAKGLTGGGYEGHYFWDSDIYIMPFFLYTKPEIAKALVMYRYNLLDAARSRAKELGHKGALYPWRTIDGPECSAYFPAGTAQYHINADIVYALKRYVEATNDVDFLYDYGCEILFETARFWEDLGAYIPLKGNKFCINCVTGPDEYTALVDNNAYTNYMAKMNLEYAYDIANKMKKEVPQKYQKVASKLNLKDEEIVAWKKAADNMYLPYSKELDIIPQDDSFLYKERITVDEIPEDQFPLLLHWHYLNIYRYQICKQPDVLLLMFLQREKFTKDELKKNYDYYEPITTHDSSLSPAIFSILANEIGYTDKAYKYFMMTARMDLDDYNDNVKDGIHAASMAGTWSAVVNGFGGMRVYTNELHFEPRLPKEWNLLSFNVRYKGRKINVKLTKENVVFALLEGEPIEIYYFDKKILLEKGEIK
Method: (§1) An aqueous solution containing 1% (w/v) of either of polyalcohols (all reagent grade), shown in Table 1 below, 1.4% (w/v) of a reagent grade β-G1P, one unit/ml of trehalose phosphorylase obtained in Example 1-1, and 50 mM acetate buffer (pH 6.0) was prepared and followed by the enzyme reaction while keeping the solution at 50° C. for 24 hours. After the reaction, a portion of each reaction mixture was withdrawn, dried, and dissolved in pyridine for gas chromatography analysis (hereinafter, simply abbreviated as “GC”). In GC analysis, a stainless steel column (internal diameter 3 mm×length 2 m) packed with 2% Silicon OV-17/Chromosorb W”, commercialized by GL Science, Tokyo, Japan) was used. Nitrogen gas was used as carrier gas and the flow rate was set to 40 ml/min. A column oven was controlled to rise a column temperature at 160° C. to 320° C. in a rate of 7.5° C./min after the injection of samples. A hydrogen-flame ion detector was used for the detection. An aqueous solution with the same composition except for trehalose phosphorylase was prepared, kept with the same condition described above, and analyzed by GC by the same condition to confirm the chromatogram of non-reacted polyalcohol and β-G1P. Transfer of a glucosyl residue to each polyalcohol was judged by detecting new peak(s) in the chromatogram of the reaction mixture. The amount of glucosyl-transferred polyalcohol formed by the reaction was estimated based on a peak area of the glucosyl-transferred polyalcohol to the total peak area including that of non-reacted (residual) polyalcohol, and classified into three groups of the area of 60% or higher, “+++”; 30% or higher but less than 60%, “++”; and 0% or higher but less than 30%, “+”.

[2] = target: T1, trehalose phosphorylase; assay: Transglucosylation to glucuronic acid and C-6DGs by trehalose phosphorylase (GC analysis); format: biochemical, Thermoanaerobium brockii; conditions: 1% (w/v) glucuronic acid or C-6DG as acceptor, 1.4% (w/v) β-G1P, one unit/ml enzyme, pH 6.0, 50° C., 24 hours; peak area of transferred product to total peak area
Method: as §1
An aqueous solution containing 1% (w/v) of any one of glucuronic acid or C-6DGs (all reagent grade), shown in Table 2 below, 1.4% (w/v) of a reagent grade β-G1P, one unit/ml of trehalose phosphorylase obtained in Example 1-1, and 50 mM acetate buffer (pH 6.0) was prepared and followed by the enzyme reaction while keeping the solution at 50° C. for 24 hours. After the reaction, each reaction mixture was analyzed by GC described in Example 1-2. In the same manner as described in Example 1-2, the amount of a glucosyl-transferred product formed by the reaction was estimated based on a peak area of the glucosyl-transferred product to the total peak area including that of non-reacted (remaining) glucuronic acid or C-6DGs, and classified into three groups of the area of 60% or higher, “+++”; 30% or higher but less than 60%, “++”; and 0% or higher but less than 30%, “+”.

Row | Compound | Transfer of a glucosyl residue (Transglucosylation) [1] | Transglucosylation to the polyalcohol, stated in words [1] | Transfer of a glucosyl residue (Transglucosylation) [2]
1 | OC[C@@H](O)[C@@H](O)CO [Erythritol] | + (0% or higher but less than 30%) | transferred a glucosyl residue | 
2 | O=C[C@H](O)[C@@H](O)[C@H](O)[C@H](O)C(=O)O [Glucuronic acid] |  |  | + (0% or higher but less than 30%)
3 | OCC(O)CO [Glycerol] | + (0% or higher but less than 30%) | transferred a glucosyl residue | 
4 | OC[C@H]1O[C@H](OC[C@H]2OC(O)[C@H](O)[C@@H](O)[C@@H]2O)[C@H](O)[C@@H](O)[C@@H]1O (stereo partly shown) [Isomaltose] |  |  | +++ (the area of 60% or higher)
5 | OC[C@H]1O[C@H](OC[C@H]2O[C@H](OC[C@H]3OC(O)[C@H](O)[C@@H](O)[C@@H]3O)[C@H](O)[C@@H](O)[C@@H]2O)[C@H](O)[C@@H](O)[C@@H]1O (stereo partly shown) [Isomaltotriose] |  |  | +++ (the area of 60% or higher)
6 | OC[C@H]1O[C@H](O[C@H]2[C@H](O)[C@@H](O)[C@@H](OC[C@H]3OC(O)[C@H](O)[C@@H](O)[C@@H]3O)O[C@@H]2CO)[C@H](O)[C@@H](O)[C@@H]1O (stereo partly shown) [Isopanose] |  |  | +++ (the area of 60% or higher)
7 | OC[C@H]1O[C@H](OCC2O[C@@H](O)[C@H](O)[C@@H](O)[C@@H]2O)[C@H](O)[C@@H](O)[C@H]1O (stereo partly shown) [Melibiose] |  |  | +++ (the area of 60% or higher)
8 | OC[C@@H](O)[C@@H](O)[C@@H](O)CO [Ribitol] | + (0% or higher but less than 30%) | transferred a glucosyl residue | 
9 | OC[C@@H](O)[C@@H](O)[C@H](O)[C@@H](O)CO [Sorbitol] | −* | no transglucosylation | 
10 | O[C@H]1[C@H](O)[C@@H](O)[C@H](O)[C@@H](O)[C@H]1O [myo-Inositol] | ++ (30% or higher but less than 60%) | transferred a glucosyl residue | 
11 | Gentiobiose |  |  | +++ (the area of 60% or higher)
